The results in this text go back to ChEMBL document CHEMBL1123256, “Neuroleptics from the 4a,9b-trans-2,3,4,4a,5,9b-hexahydro-1H-pyrido[4,3-b]indole series. 3. Carboxamidoalkyl derivatives” (J Med Chem, 1986).

Each structure is given as a SMILES string.

In assay [1] the target is Dopamine receptor.
Description: Ability to displace [3H]spiroperidol from labeled Dopamine receptor of corpus striatum
For assay [2], the system named is Rattus norvegicus. The experiment in a line: Compound was tested in vivo for its ability to antagonize the stereotypy in rats induced by d-amphetamine sulfate 1 hr later of the treatment; value ranges from 0.1-0.32. Format: functional.
Assay [3] has as its system Rattus norvegicus. The experiment in a line: Compound was tested in vivo for its ability to antagonize the stereotypy in rats induced by d-amphetamine sulfate 5 h later of the treatment; value ranges from 0.32-1.0. In kind it is functional.
For assay [4], the target named is Dopamine receptor. This is another data set of the same source.
Description: Compound was tested in vitro for its ability to displace [3H]spiroperidol from labeled dopamine receptors of corpus striatum
Assay [5] has as its system Rattus norvegicus. The experiment in a line: Compound was tested in vivo for its ability to antagonize the stereotypy in rats induced by d-amphetamine sulfate 1 hr later of the treatment; value ranges from 0.03-0.1. In kind it is functional.
The test system of assay [6] is Rattus norvegicus. Put plainly: Compound was tested in vivo for its ability to antagonize the stereotypy in rats induced by d-amphetamine sulfate 24 hr later of the treatment; value ranges from 0.32-1.0. In kind it is functional.
Assay [7] concerns Rattus norvegicus. The experiment in a line: Compound was tested in vivo for its ability to antagonize the stereotypy in rats induced by d-amphetamine sulfate 5 hr later of the treatment; value ranges from 0.1-0.032. In kind it is functional.
The target in assay [8] is Dopamine receptor. The experiment in a line: Compound was tested in vitro for its ability to displace [3H]spiroperidol from labeled Dopamine receptor of corpus striatum. Format: functional.

For orientation: IC50 means the concentration that inhibits the measured activity by half. A low value points to greater potency in that assay. A word on the ED50: it is the dose at which the effect has come halfway, by size or by number of responders. A high value points to weaker potency.

`CC(=O)NCCCCCN1CC[C@@H]2C(C1)c1cc(F)ccc1N2c1ccc(F)cc1.Cl` (some centres not stated): the IC50 against Dopamine receptor [1] amounted to 9 nM.
In the case of `Cl.N#CCCCN1CC[C@@H]2C(C1)c1cc(F)ccc1N2c1ccc(F)cc1` (some centres not stated), in the assay with Rattus norvegicus [2], the 50% effect level (ED50) was put at a dose of 0.1 mg/kg.
For `Cl.NCCCCN1CC[C@@H]2C(C1)c1cc(F)ccc1N2c1ccc(F)cc1` (some centres not stated), the IC50 against Dopamine receptor [1] was found to be 28 nM.
In turn, `CC(C(=O)CN1CC[C@@H]2C(C1)c1cc(F)ccc1N2c1ccc(F)cc1)c1ncco1.Cl` (some centres not stated) displayed an IC50 against Dopamine receptor [1] of 10 nM.
Turning to `Cl.O=c1oc2ccccc2n1CCCCN1CC[C@@H]2C(C1)c1cc(F)ccc1N2c1ccc(F)cc1` (some centres not stated), it took a dose of 0.32 mg/kg to reach the 50% effect level in the assay with Rattus norvegicus [3] (ED50). Besides, the concentration for half-maximal inhibition (IC50) against Dopamine receptor [4] came out at 28 nM.
Regarding `CC(=O)NCCCCN1CC[C@@H]2C(C1)c1cc(F)ccc1N2c1ccc(F)cc1.Cl` (some centres not stated), the half-maximal inhibitory concentration (IC50) on Dopamine receptor [1] is listed as 15 nM.
Regarding `CC(=O)NCCCN1CC[C@@H]2C(C1)c1cc(F)ccc1N2c1ccc(F)cc1.Cl` (some centres not stated), the median effective dose (ED50) turned out to be 0.03 mg/kg with Rattus norvegicus [5] and 0.32 mg/kg with Rattus norvegicus [6]. The same molecule returned an IC50 against Dopamine receptor [1] of 10 nM.
In the case of `Cl.O=C1c2ccccc2C(=O)N1CCCCN1CC[C@@H]2C(C1)c1cc(F)ccc1N2c1ccc(F)cc1` (some centres not stated), at Dopamine receptor [4], the IC50 was 27 nM.
Turning to `CCOC(=O)NCCCCN1CC[C@@H]2C(C1)c1cc(F)ccc1N2c1ccc(F)cc1.Cl` (some centres not stated), the IC50 against Dopamine receptor [1] was found to be 11 nM.
Consider `CC(=O)NCCCCCCN1CC[C@@H]2C(C1)c1cc(F)ccc1N2c1ccc(F)cc1.Cl` (some centres not stated), for which the half-maximal inhibitory concentration (IC50) against Dopamine receptor [1] came to 8 nM.
In turn, `Cl.O=C1CCCCN1CCCCN1CC[C@@H]2C(C1)c1cc(F)ccc1N2c1ccc(F)cc1` (some centres not stated) yielded an ED50 in the assay on Rattus norvegicus [7] of 0.032 mg/kg. Also, the IC50 against Dopamine receptor [4] worked out at 6.2 nM.
`CC(=O)NCCCCCCCN1CC[C@@H]2C(C1)c1cc(F)ccc1N2c1ccc(F)cc1.Cl` (some centres not stated) came in with a concentration for half-maximal inhibition (IC50) on Dopamine receptor [8] of 9 nM.
Take `CC(=O)NCCN1CC[C@@H]2C(C1)c1cc(F)ccc1N2c1ccc(F)cc1.Cl` (some centres not stated): the IC50 against Dopamine receptor [1] came to 16 nM.
